Consider 34 molecules from patent US8906852B2 (MethylGene Inc., priority 2010, dated 2014).

SMILES strings stand for the structures. A value given as a limit tells only on which side of the number the result lay.

T1 sequence (P35968 806-1356): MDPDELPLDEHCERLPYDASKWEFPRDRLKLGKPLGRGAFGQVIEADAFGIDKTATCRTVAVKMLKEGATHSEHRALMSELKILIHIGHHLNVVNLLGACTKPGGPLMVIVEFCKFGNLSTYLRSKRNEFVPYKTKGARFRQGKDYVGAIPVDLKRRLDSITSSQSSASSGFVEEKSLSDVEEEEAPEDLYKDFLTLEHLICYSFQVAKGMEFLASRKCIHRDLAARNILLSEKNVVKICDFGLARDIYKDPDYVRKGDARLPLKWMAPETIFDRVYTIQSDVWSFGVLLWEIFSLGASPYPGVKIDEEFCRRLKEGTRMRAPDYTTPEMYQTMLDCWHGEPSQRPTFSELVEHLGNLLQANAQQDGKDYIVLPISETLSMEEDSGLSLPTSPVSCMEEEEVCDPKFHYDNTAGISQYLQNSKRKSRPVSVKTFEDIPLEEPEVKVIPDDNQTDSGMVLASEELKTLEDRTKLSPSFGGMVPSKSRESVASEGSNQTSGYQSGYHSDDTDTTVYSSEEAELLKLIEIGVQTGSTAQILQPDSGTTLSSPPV

This assay concerns the target T1, VEGFR/KDR (Homo sapiens, UniProt P35968).
T1 construct: made in house; host or cells: Sf9 cells (Spodoptera frugiperda), baculovirus
Briefly: VEGFR/KDR kinase inhibition, DELFIA assay. The settings on record: ATP 0.6 uM (2x Km), enzyme 5 nM. It counts as biochemical. The gist of the method: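 Enzyme (5 nM) pre-incubated 4 min on ice with inhibitor and Mg-ATP (0.6 uM, 2× Km), then reacted 10-30 min at 30° C on immobilized poly(Glu4,Tyr). EDTA-quenched phosphotyrosine detected with Europium-labeled antibody by time-resolved fluorescence; IC50 from concentration series.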
The molecule `O=C(Nc1ccc(Oc2ccnc3cc(-c4cnn(CCOC(=O)NC5CC5)c4)sc23)c(F)c1)NC1CC1` [Compound 157, 2-(4-(7-(4-(3-cyclopropylureido)-2-fluorophenoxy)thieno[3,2-b]pyridin-2-yl)-1H-pyrazol-1-yl)ethyl cyclopropylcarbamate] yielded an IC50 of less than 50 nM.

For the molecule `O=C(O)CN1CCN(Cc2ccc(-c3cc4nccc(Oc5ccc(NC(=O)NC6CC6)cc5F)c4s3)nc2)CC1` [Compound 61, 2-(4-((6-(7-(4-(3-cyclopropylureido)-2-fluorophenoxy)thieno[3,2-b]pyridin-2-yl)pyridin-3-yl)methyl)piperazin-1-yl)acetic acid], the IC50 is less than 50 nM.

Consider `CN1CCC(CN2CCN(Cc3ccc(-c4cc5nccc(Oc6ccc(NC(=O)NC7CC7)cc6F)c5s4)nc3)CC2)CC1` [Compound 54-D, 1-cyclopropyl-3-(3-fluoro-4-(2-(5-((4-((1-methylpiperidin-4-yl)methyl)piperazin-1-yl)methyl)pyridin-2-yl)thieno[3,2-b]pyridin-7-yloxy)phenyl)urea], for which the IC50 was less than 50 nM.

On to `NC(=O)c1cccc(NC(=O)Nc2ccc(Oc3ccnc4cc(-c5ccc(CN6CCCC6=O)cn5)sc34)c(F)c2)c1` [Compound 106, 3-(3-(3-fluoro-4-(2-(5-((2-oxopyrrolidin-1-yl)methyl)pyridin-2-yl)thieno[3,2-b]pyridin-7-yloxy)phenyl)ureido)benzamide], for which the IC50 was less than 50 nM.

Take `O=C(Nc1ccc(Oc2ccnc3cc(C(=O)N4CC[C@H](O)C4)sc23)c(F)c1)NC1CC1` [Compound 461, (S)-1-cyclopropyl-3-(3-fluoro-4-(2-(3-hydroxypyrrolidine-1-carbonyl)thieno[3,2-b]pyridin-7-yloxy)phenyl)urea]: the IC50 was less than 50 nM.

`COCCN1CCN(Cc2ccc(-c3cc4nccc(Oc5ccc(NC(=O)NC6CC6)cc5F)c4s3)nc2)CC1` [Compound 56] displayed an IC50 of less than 50 nM.

Regarding `COCCN(CCn1cnc(-c2cc3nccc(Oc4ccc(NC(=O)NC5CC5)cc4F)c3s2)c1)C(C)=O` [Compound 254-A, N-(2-(4-(7-(4-(3-cyclopropylureido)-2-fluorophenoxy)-thieno[3,2-b]pyridin-2-yl)-1H-imidazol-1-yl)ethyl)-N-(2-methoxyethyl)acetamide], the IC50 was less than 50 nM.

In the case of `O=C(Nc1ccc(Oc2ccnc3cc(-c4ccc(C(=O)NCCN5CCOCC5)cn4)sc23)c(F)c1)NC1CC1` [Compound 235, 6-(7-(4-(3-cyclopropylureido)-2-fluorophenoxy)thieno[3,2-b]pyridin-yl)-N-(2-morpholinoethyl)nicotinamide], the IC50 was less than 50 nM.

In the case of `CCOC(=O)NC1CCN(Cc2ccc(-c3cc4nccc(Oc5ccc(NC(=O)NC6CC6)cc5F)c4s3)nc2)CC1` [Compound 351], the IC50 was less than 50 nM.

For the molecule `CC(C)(C)OC(=O)NCC(=O)N1CCN(C(=O)Cn2cc(-c3cc4nccc(Oc5ccc(NC(=O)NC6CC6)cc5F)c4s3)nn2)CC1` [Compound 392], the IC50 is less than 50 nM.

In turn, `O=C(Nc1ccc(Oc2ccnc3cc(-c4ccc(CN5CCOCCOCCOCCOCC5)cn4)sc23)c(F)c1)NC1CC1` [Compound 533] displayed an IC50 of less than 50 nM.

Molecule `CCCCOC(=O)C1CN(C(=O)c2ccc(-c3cc4nccc(Oc5ccc(NC(=O)NC6CC6)cc5F)c4s3)nc2)CCO1` (stereo not shown) [Compound 238, butyl 4-(6-(7-(4-(3-cyclopropylureido)-2-fluorophenoxy)thieno[3,2-b]pyridin-2-yl)nicotinoyl)morpholine-2-carboxylate] yielded an IC50 of less than 50 nM.

With `CN(C(=O)CO)C1CCN(Cc2ccc(-c3cc4nccc(Oc5ccc(NC(=O)NC6CC6)cc5F)c4s3)nc2)CC1` [Compound 413], the IC50 is less than 50 nM.

Molecule `CCOC(=O)CC(C)N1CCN(Cc2ccc(-c3cc4nccc(Oc5ccc(NC(=O)NC6CC6)cc5F)c4s3)nc2)CC1` (stereo not shown) [Compound 515, Ethyl 3-(4-((6-(7-(4-(3-cyclopropylureido)-2-fluorophenoxy)thieno[3,2-b]pyridin-2-yl)pyridin-3-yl)methyl)piperazin-1-yl)butanoate] registered an IC50 of less than 50 nM.

With `NC1CCN(C(=O)c2ccc(-c3cc4nccc(Oc5ccc(NC(=O)NC6CC6)cc5F)c4s3)nc2)CC1` [Compound 400], the IC50 was less than 50 nM.

Consider `CCNC(=O)N(CCOC)CCn1cnc(-c2cc3nccc(Oc4ccc(NC(=O)NC5CC5)cc4F)c3s2)c1` [Compound 256, N-(2-(4-(7-(4-(3-cyclopropylureido)-2-fluorophenoxy)thieno[3,2-b]-pyridin-2-yl)-1H-imidazol-1-yl)ethyl)-N-(1-ethyl)-N-[3-(2-methoxyethyl)]urea], for which the half-maximal inhibitory concentration (IC50) was less than 50 nM.

In turn, `C=CC(=O)N(C)C1CCN(Cc2ccc(-c3cc4nccc(Oc5ccc(NC(=O)NC6CC6)cc5F)c4s3)nc2)CC1` [Compound 412] had an IC50 of less than 50 nM.

As for `CN1CCC(C(=O)N2CCN(Cc3ccc(-c4cc5nccc(Oc6ccc(NC(=O)NC7CC7)cc6F)c5s4)nc3)CC2)CC1` [Compound 539], the IC50 is less than 50 nM.

With `C[C@H]1CN(Cc2ccc(-c3cc4nccc(Oc5ccc(NC(=O)NC6CC6)cc5F)c4s3)nc2)CCN1` [Compound 527], the IC50 was less than 50 nM.

`O=C(Nc1ccc(Oc2ccnc3cc(-c4cn(CCC(=O)N5CCCCC5)nn4)sc23)c(F)c1)NC1CC1` [Compound 379] came in with a half-maximal inhibitory concentration (IC50) of less than 50 nM.

In turn, `C=CC(=O)N1CCN(Cc2ccc(-c3cc4nccc(Oc5ccc(NC(=O)NC6CC6)cc5F)c4s3)nc2)CC1(C)C` [Compound 499, 1-(4-(2-(5-((4-acryloyl-3,3-dimethylpiperazin-1-yl)methyl)pyridin-2-yl)thieno[3,2-b]pyridin-7-yloxy)-3-fluorophenyl)-3-cyclopropylurea] had an IC50 of less than 50 nM.

`COCCN(Cc1ccc(-c2cc3nccc(Oc4ccc(NC(=O)NC5CC5)cc4F)c3s2)nc1)C(=O)COC` [Compound 85]: the IC50 was less than 50 nM.

In the case of `COC(=O)C1CCN(Cc2ccc(-c3cc4nccc(Oc5ccc(NC(=O)NC6CC6)cc5F)c4s3)nc2)C1` (stereo not shown) [Compound 478, methyl 1-((6-(7-(4-(3-cyclopropylureido)-2-fluorophenoxy)thieno[3,2-b]pyridin-2-yl)pyridin-3-yl)methyl)pyrrolidine-3-carboxylate], the IC50 was less than 50 nM.

In turn, `N[C@H]1CCN(Cc2ccc(-c3cc4nccc(Oc5ccc(NC(=O)NC6CC6)cc5F)c4s3)nc2)C1` [Compound 495, (S)-1-(4-(2-(5-((3-aminopyrrolidin-1-yl)methyl)pyridin-2-yl)thieno[3,2-b]-pyridin-7-yloxy)-3-fluorophenyl)-3-cyclopropylurea] returned an IC50 of less than 50 nM.

Molecule `CCNC(=O)N1CC(N(CC(=O)O)Cc2ccc(-c3cc4nccc(Oc5ccc(NC(=O)NC6CC6)cc5F)c4s3)nc2)C1` [Compound 434, 2-(((6-(7-(4-(3-Cyclopropylureido)-2-fluorophenoxy)thieno[3,2-b]pyridin-2-yl)pyridin-3-yl)methyl)(1-(ethylcarbamoyl)azetidin-3-yl)-amino)acetic acid] returned an IC50 of less than 50 nM.

The molecule `O=C(O)CCN1CCN(Cc2ccc(-c3cc4nccc(Oc5ccc(NC(=O)NC6CC6)cc5F)c4s3)nc2)CC1` [Compound 70, 3-(4-((6-(7-(4-(3-cyclopropylureido)-2-fluorophenoxy)thieno[3,2-b]pyridin-2-yl)pyridin-3-yl)methyl)piperazin-1-yl)propanoic acid] came in with an IC50 of less than 50 nM.

`COCCN(Cc1ccc(-c2cc3nccc(Oc4ccc(NC(=O)NC5CC5)cc4F)c3s2)nc1)C(=O)COP(=O)(O)O` [Compound 34, 2-(((6-(7-(4-(3-cyclopropylureido)-2-fluorophenoxy)thieno[3,2-b]pyridin-2-yl)pyridin-3-yl)methyl)(2-methoxyethyl)amino)-2-oxoethyl dihydrogen phosphate]: the IC50 was less than 50 nM.

`COCCN(Cc1cnc(-c2cc3nccc(Oc4ccc(NC(=O)NC5CC5)cc4F)c3s2)n1C)C(=O)NC(C)C` [Compound 189] returned an IC50 of less than 50 nM.

As to `O=C(O)CCCCN1CCN(Cc2ccc(-c3cc4nccc(Oc5ccc(NC(=O)NC6CC6)cc5F)c4s3)nc2)CC1` [Compound 518, 5-(4-((6-(7-(4-(3-cyclopropylureido)-2-fluorophenoxy)thieno[3,2-b]pyridin-2-yl)pyridin-3-yl)methyl)piperazin-1-yl)pentanoic acid], the IC50 was less than 50 nM.

For the molecule `COCCN(Cc1ccc(-c2cc3nccc(Oc4ccc(NC(CC(=O)Nc5ccc(F)cc5)C(F)(F)F)cc4F)c3s2)nc1)C(C)=O` (stereo not shown) [Compound 39], the IC50 is less than 50 nM.

`COCCNCc1ccc(-c2cc3nccc(Oc4ccc(NC(=O)NC5CC5)nc4)c3s2)nc1` [Compound 29, 1-cyclopropyl-3-(5-(2-(5-((2-methoxyethylamino)methyl)pyridin-2-yl)thieno[3,2-b]-pyridin-7-yloxy)pyridin-2-yl)urea] returned an IC50 of 100 to 250 nM.

`COCCN(Cc1ccc(-c2cc3nccc(Oc4ccc(NC(=O)NC5CC5)cc4F)c3s2)nc1)C(=O)CNC(=O)CN` [Compound 92-A, 2-(2-aminoacetamido)-N-((6-(7-(4-(3-cyclopropylureido)-2-fluorophenoxy)thieno[3,2-b]pyridin-2-yl)pyridin-3-yl)methyl)-N-(2-methoxyethyl)acetamide] came in with an IC50 of less than 50 nM.

The molecule `CCNC(=O)N(CCOC)Cc1cnc(-c2cc3nccc(Oc4ccc(NC(=O)NC5CC5)cc4F)c3s2)n1C` [Compound 161-B, 1-((2-(7-(4-cyclopropylaminocarbonylamino-2-fluorophenoxy)thieno[3,2-b]pyridin-2-yl)-1-methyl-1H-imidazol-5-yl)methyl)-3-ethyl-1-(2-methoxyethyl)urea] came in with an IC50 of less than 50 nM.

In turn, `CC(=O)OC1CN(C(=O)c2cc3nccc(Oc4ccc(NC(=O)NC5CC5)cc4F)c3s2)C1` [Compound 469, 1-(7-(4-(3-cyclopropylureido)-2-fluorophenoxy)thieno[3,2-b]pyridine-2-carbonyl)azetidin-3-yl acetate] returned a half-maximal inhibitory concentration (IC50) of less than 50 nM.
